Experimental data taken from patent US20240299328A1, “COMPOSITIONS COMPRISING 15-HEPE AND METHODS OF TREATING AND/OR PREVENTING HEMATOLOGIC DISORDERS AND RELATED DISEASES” (Afimmune Limited, priority 2023, published 2024).
Read-outs that look alike come from different tables or passages of the source. Marks after values point to notes of the source that are not given here.

Legend:
NAFLD patients = system: NAFLD patients
From the text: Safety Assessments included the following: medical history; physical examination; ECG; vital signs; clinical laboratory safety tests (e.g., hematology, serum biochemistry, coagulation, lipid profile, and urinalysis); virology; pregnancy test; blood sampling; pharmacokinetic sampling; exploratory blood collection; biomarker blood collection; urine DOA and alcohol breath test; adverse event assessment; concomitant medication; bioanalysis; sample, storage, handling; and shipping; and restrictions. A detailed description of each is provided below.
AEs were recorded in the case report form, defining relationship to IMP and severity.
SAE: If a patient experienced a serious adverse event after the first dose of the study drug, the event was recorded as a SAE. A SAE is characterized as an untoward medical occurrence at any dose to include any of the following: results in death, is life threatening, requires in-patient hospitalization or prolongation of existing hospitalization, or results in persistent or significant disability/incapacity. The term “life-threatening” refers to an event in which the patient was at risk of death at the time of the event.
Safety Analysis: Demographic, medical history and physical examination data were listed for each patient and summarized descriptively. All AEs recorded during the study were coded to system organ class and preferred terms using the current version of the Medical Dictionary for Regulatory Activities (MedDRA). AEs were tabulated and summarized by treatment, relationship to treatment, seriousness and severity. Clinical laboratory values (e.g., hematology, biochemistry, and urinalysis) were listed for each patient by treatment and day. Values outside the laboratory normal ranges were listed separately with associated comments as to their clinical significance, with potentially clinically significant abnormalities highlighted and summarized by treatment. Clinical laboratory values obtained prior to dosing were defined as baseline values. Alcohol breath test and DOA test results were listed for each patient. Individual values of vital signs were listed and summarized descriptively for each treatment and day. 12 lead ECG assessments were listed for each patient with all associated comments and summarized by treatment and day. Concomitant medications (if any), categorized by medication group and subgroup according to the latest version of the World Health Organization drug dictionary, were listed and summarized by treatment. In general, appropriate descriptive statistics according to the nature of the variable were applied. Categorical variables were presented using counts and percentage, whilst continuous variables were presented using mean, standard deviation, median, minimum, maximum, coefficient of variation and number of patients.

Sprague Dawley rats [1] = test: 26 week rat toxicity study: hematology; type: in vivo; details: male rats, 26 weeks
Description: (§1) The test and control items were administered to the appropriate animals by once daily oral gavage 7 days a week for a minimum of 26 weeks. The volume for each animal was based on the most recent body weight measurements. The doses were given using a syringe with attached gavage cannula. The first day of dosing was designated as Day 1. The dosing formulations were removed from the refrigerator and stirred for at least 30 minutes before dosing. The dosing formulations were also stirred continuously during dosing.
Sample Collection: Blood was collected via the tail vein unless immediately prior to necropsy, when blood was collected from the orbital sinus under non-recoverable isoflurane anesthesia. Blood was collected in ascending animal order unless samples were collected prior to necropsy where the order of euthanasia was followed. Additional blood samples were obtained (e.g., due to clotting of non-serum samples) if permissible sampling frequency and blood volume were not exceeded. After collection, samples were transferred to the appropriate laboratory for processing. Samples were collected according to the following table.
Hematology: A 0.5 mL blood sample was collected using the anticoagulant K2EDTA. Blood smears were labelled, stained, and stored. The blood smears were analyzed according to the following parameters.
Animals: The study used male and female Sprague Dawley rats purchased from Charles River UK Limited (Margate, Kent, UK). The target age at the initial dosing was 7-8 weeks. The target weight at the initial dosing was 175-300 g (males) and 120-250 g (females). Each animal was identified using a subcutaneously implanted electronic cylindrical, “glass-sealed” TROVAN microchip.

Sprague Dawley rats [2] = test: 26 week rat toxicity study: tolerability, clinical signs; type: in vivo; details: 6 g/kg/day oral gavage, replaced with 3 g/kg/day
Description: as §1
Due to the onset of clinical signs, including hunched posture, erect fur and abnormal gait and body weight loss, animals 3206M, 3515F and 3703F were given a dosing holiday from Day 45 and remaining Group 3 animals were given a dosing holiday from Day 48. Animals will start dosing at the lower dose level (3000 mg/kg/day) from Day 64. The following tables illustrate the treatments (Table 22) and animal groupings (Table 23) that were used in the study.
Mortality/moribundity checks were made daily. […] Animals were not removed from the cage during observation, unless necessary for identification or confirmation of possible findings.
Post-dose observations were made regularly throughout the day. […] The onset, intensity, and duration of these signs were recorded; particular attention was paid to the animals during and for the first hour after dosing.

rats = details: 26-week oral, once daily; cited from earlier work
[3] = 6000/3000 mg/kg/day oral gavage

CC/C=C\C[C@H](O)/C=C/C=C\C/C=C\C/C=C\CCCC(=O)OCC [DS102, 15(S)-hydroxy-(5Z,8Z,11Z,13E,17Z)-eicosapentaenoic acid ethyl ester]
AEs leading to treatment discontinuation (NAFLD patients; 1 g DS102 (n = 32)): 0 n (%)
Death (NAFLD patients; 1 g DS102 (n = 32)): 0 n (%)
Patients with ≥1 AE (NAFLD patients; 1 g DS102 (n = 32)): 19 (59.4) n (%)
Patients with ≥1 AE related to study drug (NAFLD patients; 1 g DS102 (n = 32)): 2 (6.3) n (%)
Patients with ≥1 SAE (NAFLD patients; 1 g DS102 (n = 32)): 0 n (%)
SAEs related to drug study (NAFLD patients; 1 g DS102 (n = 32)): 0 n (%)
AEs leading to treatment discontinuation (NAFLD patients; 2 g DS102 (n = 30)): 0 n (%)
Death (NAFLD patients; 2 g DS102 (n = 30)): 0 n (%)
Patients with ≥1 AE (NAFLD patients; 2 g DS102 (n = 30)): 15 (50.0) n (%)
Patients with ≥1 AE related to study drug (NAFLD patients; 2 g DS102 (n = 30)): 3 (10.0) n (%)
Patients with ≥1 SAE (NAFLD patients; 2 g DS102 (n = 30)): 1 (3.3) n (%)
SAEs related to drug study (NAFLD patients; 2 g DS102 (n = 30)): 0 n (%)
safety and tolerance (NAFLD patients; NAFLD patients, 1 g or 2 g per day, 16 weeks, compared to placebo): safe and well tolerated
Red Cell Distribution Width (RDW), Mean (Sprague Dawley rats [1]; 2000 mg/kg/day oral gavage): 13.91** %
Red blood cell count (RBC), Mean (Sprague Dawley rats [1]; 2000 mg/kg/day oral gavage): 8.67 10^12/L
Reticulocyte count (RETIC), Mean (Sprague Dawley rats [1]; 2000 mg/kg/day oral gavage): 1.546e+11 L⁻¹
Red Cell Distribution Width (RDW), Mean (Sprague Dawley rats [1]; [3]): 13.60** %
Red blood cell count (RBC), Mean (Sprague Dawley rats [1]; [3]): 8.81** 10^12/L
Reticulocyte count (RETIC), Mean (Sprague Dawley rats [1]; [3]): 141.46** 10^9/L
tolerability of the highest dose (Sprague Dawley rats [2]): not well tolerated
highest dose tested, showing no adverse effects (rats): 1 mg/kg/day
